Results as given in ChEMBL document CHEMBL1201862, “PubChem BioAssay data set” (2004).
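How tested: cells in 96-well plates exposed to compound for 48 hours at five concentrations. The concentration for 50% growth inhibition is given as GI50.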 Calls of active or inactive are those of the source. No stated cut-off is given here; in the data, active = GI50 up to about 1.1 µM and inactive = higher.

How the values were obtained:
Assay in all cases: growth of human tumour cells (NCI), 48 h
KM-20L2 = system: KM-20L2
SNB-78 = system: SNB-78
LXFL 529 = system: LXFL 529
M19-MEL = system: M19-MEL
DLD-1 = system: DLD-1
DMS-273 = system: DMS-273
DMS-114 = system: DMS-114
RXF 631 = system: RXF 631

Measured: GI50

Clc1ccc(Cl)c2[s+]snc12
inactive: KM-20L2 > 100 µM | SNB-78 > 100 µM | LXFL 529 34.2 µM | M19-MEL 54.7 µM | DLD-1 44.6 µM | DMS-273 27 µM | DMS-114 24.9 µM | RXF 631 > 94.6 µM

COC(=O)C1(c2ccc(OC)cc2)NC(c2ccccc2)C2C(=O)N(c3ccc(OC)cc3)C(=O)C21 (stereo not drawn)
inactive: KM-20L2 > 100 µM | SNB-78 > 100 µM | LXFL 529 > 100 µM | DLD-1 > 100 µM | DMS-273 > 100 µM | DMS-114 > 100 µM | RXF 631 > 100 µM

COc1ccc(-c2nc(Sc3c([N+](=O)[O-])ncn3C)n[nH]2)cc1
inactive: SNB-78 4.22 µM | LXFL 529 3.12 µM | M19-MEL 4.9 µM | DLD-1 2.49 µM | DMS-273 2.18 µM | DMS-114 2.41 µM | RXF 631 3.3 µM

COc1ccc(C(=O)Cc2ccc(Br)cc2)cc1OC
inactive: KM-20L2 > 100 µM | SNB-78 > 100 µM | LXFL 529 > 100 µM | M19-MEL > 100 µM | DLD-1 > 100 µM | DMS-273 > 100 µM | DMS-114 > 100 µM | RXF 631 57.4 µM

N#COc1ccc(Oc2ccc(OC#N)cc2)cc1
inactive: KM-20L2 > 100 µM | SNB-78 > 100 µM | LXFL 529 > 100 µM | M19-MEL > 100 µM | DLD-1 63 µM | DMS-114 32.1 µM | RXF 631 17.1 µM

CN(c1ccccc1)c1nc(=[N+]2CCCC2)ss1.[O-][Cl+3]([O-])([O-])[O-]
inactive: KM-20L2 > 100 µM | SNB-78 > 100 µM | LXFL 529 > 100 µM | DMS-273 6.56 µM | DMS-114 7.66 µM | RXF 631 20.6 µM

c1ccc2c(c1)[nH]c1c2ncc2[nH]c3ccccc3c21
inactive: KM-20L2 3.71 µM | SNB-78 4.95 µM | LXFL 529 3.64 µM | M19-MEL 5.35 µM | DLD-1 3.44 µM | DMS-273 2.45 µM | DMS-114 2.44 µM | RXF 631 2.16 µM

CN(C)C(=N)NC(=S)N(C)C
inactive: KM-20L2 > 100 µM | SNB-78 > 100 µM | LXFL 529 > 100 µM | M19-MEL > 100 µM | DLD-1 > 100 µM | DMS-273 > 100 µM | DMS-114 > 100 µM | RXF 631 > 100 µM

C/C(=N/Nc1ccc([N+](=O)[O-])cc1[N+](=O)[O-])C(CC(C(=O)NCc1ccccc1)/C(C)=N\Nc1ccc([N+](=O)[O-])cc1[N+](=O)[O-])C(=O)NCc1ccccc1 (stereo not drawn)
inactive: KM-20L2 14.2 µM | SNB-78 9.16 µM | LXFL 529 10.9 µM | M19-MEL 11.5 µM | DLD-1 12.1 µM | DMS-273 8.02 µM | DMS-114 9.91 µM | RXF 631 4.29 µM

Nc1cc[nH]c(=O)n1
inactive: KM-20L2 > 100 µM | SNB-78 > 100 µM | LXFL 529 > 100 µM | M19-MEL > 100 µM | DLD-1 > 100 µM | DMS-273 > 100 µM | DMS-114 > 100 µM | RXF 631 > 100 µM

CC(=O)OC1CC[C@@]2(C)C(CC(OC3OC(CO)C(O)C(O)C3O)[C@]3(C)C2CCC24CC23CC[C@H]4C(C)CC(O)[C@@H](O)C(C)(C)O)C1(C)C (stereo partly drawn)
inactive: KM-20L2 19.9 µM | SNB-78 > 5 µM | LXFL 529 8.99 µM | M19-MEL 8.07 µM | DLD-1 15.5 µM | DMS-273 18.2 µM | DMS-114 10.8 µM | RXF 631 29 µM
